Laboratory results taken from publication PMC10961359, “Targeting hexokinase 2 for oral cancer therapy: structure-based design and validation of lead compounds” (Frontiers in Pharmacology, 2024).

How the values were obtained:
[1] = target: T1, HK2 (Homo sapiens, UniProt P52789); assay: HK2 enzyme inhibition assay (Abcam kit ab211114); assay type: biochemical
T1 construct: purchased Abcam ab211114
T1 sequence (P52789 1-917): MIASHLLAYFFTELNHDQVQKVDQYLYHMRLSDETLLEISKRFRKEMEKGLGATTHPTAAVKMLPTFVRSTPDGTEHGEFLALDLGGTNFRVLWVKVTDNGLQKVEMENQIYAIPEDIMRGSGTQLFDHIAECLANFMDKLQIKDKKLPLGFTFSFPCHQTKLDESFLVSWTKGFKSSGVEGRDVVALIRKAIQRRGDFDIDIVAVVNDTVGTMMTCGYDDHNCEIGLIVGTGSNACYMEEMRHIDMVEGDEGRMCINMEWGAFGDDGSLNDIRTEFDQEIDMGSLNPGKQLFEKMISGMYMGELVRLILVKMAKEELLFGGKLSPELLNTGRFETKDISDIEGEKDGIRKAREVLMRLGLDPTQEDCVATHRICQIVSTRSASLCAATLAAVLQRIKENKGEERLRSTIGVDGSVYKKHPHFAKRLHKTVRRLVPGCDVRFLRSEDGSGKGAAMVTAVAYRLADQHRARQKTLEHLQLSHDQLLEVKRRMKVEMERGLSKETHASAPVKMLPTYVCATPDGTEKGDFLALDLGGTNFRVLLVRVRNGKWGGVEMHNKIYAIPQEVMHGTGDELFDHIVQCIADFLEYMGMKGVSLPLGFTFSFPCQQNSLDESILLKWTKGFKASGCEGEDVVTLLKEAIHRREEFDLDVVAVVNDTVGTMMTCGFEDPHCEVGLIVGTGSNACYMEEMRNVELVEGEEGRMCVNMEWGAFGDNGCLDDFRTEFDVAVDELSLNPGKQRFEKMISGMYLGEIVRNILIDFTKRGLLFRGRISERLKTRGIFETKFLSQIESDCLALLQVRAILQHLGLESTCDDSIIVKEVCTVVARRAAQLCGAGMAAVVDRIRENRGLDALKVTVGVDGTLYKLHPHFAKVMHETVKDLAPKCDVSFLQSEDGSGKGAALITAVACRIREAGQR
Method: The HK2 enzyme inhibition assay was performed using an HK2 inhibitor assay kit (Abcam, ab211114) according to the manufacturer’s instructions. Initially, 50 µM compound concentration was used to perform the enzyme activity inhibition studies, after which IC50 of the top leads were determined.
The hits derived from the docking study were sourced from either commercial suppliers or pre-existing compounds within our laboratory or were synthesized anew. The FaDu and Cal27 oral cancer cells were treated with the compounds for 72 h at concentrations of 3, 10, 30, and 100 μM. A post-treatment MTT assay was done to evaluate their antiproliferative activity. Table S2 represents the anti-proliferative and enzyme inhibitory activity of the compounds obtained as hits from the structure-based drug design strategy. […] Consequently, 50 μM of all the hit compounds were evaluated for their HK2 enzyme inhibitory activity. 50 μM of compounds were incubated with HK2 protein and the rate of reaction was assessed in kinetic mode (rate of conversion of NAD to NADH). The choice of 50 μM concentration was based primarily on MTT assays and GI50 calculation. The average GI50 values of the hit compounds against less sensitive FaDu cell line was approximately 50 μM. Considering this information, we reasoned that utilizing a concentration equivalent to the average GI50 would allow us to assess the maximum inhibitory effect of the compounds on HK2 enzyme activity. […] The same compounds have been previously reported by our team to have EGFR phosphorylation inhibitory potential and were coded as H2 (compound 14) and H10 (compound 11) ([Chakraborty et al., 2022]). […] Figures 1C,D show the lead compounds H2 and H10 at the active site of HK2 enzyme interacting via H-bonds with the amino acid residues.

[2] = Cytotoxicity in normal HFF1 cells; assay type: cell-based, human; conditions: human, HFF1 cells (normal)
[3] = system: HFF1; assay: Cytotoxicity in normal HFF1 cells; assay type: cell-based, human
[4] = system: Cal27 cells; assay: Cell cycle analysis (propidium iodide, flow cytometry), Cal27; assay type: cell-based; conditions: Cal27, 10 and 30 μM, 72 h
Method: (§1) FaDu and Cal27 cells were treated with the test compounds (0.5 million cells per treatment) for 72 h, and harvested for cell cycle analysis (Cat# BD340242) and apoptosis analysis (Cat# BD556547) by flow cytometry according to manufacturer’s instructions.
(§2) To determine the effect of HK2 inhibition in the progression of the cell cycle, flow cytometric analysis of compound-treated FaDu and Cal27 cells was carried out 72 h post-treatment. Cell cycle analysis is carried out to quantify the DNA content and estimate the percentages of the cell population in different cell cycle phases via propidium iodide staining. […] To determine the apoptosis-inducing activity of HK2 inhibitors, 10 and 30 μM of compounds H2 and H10 treated FaDu and Cal27 cells were stained with annexin V conjugated with FITC, followed by propidium iodide staining.

[5] = system: Cal27 cells; assay: Annexin V FITC / propidium iodide apoptosis assay, Cal27; assay type: cell-based; conditions: Cal27, 10 and 30 μM, 72 h
Method: as §1, §2

[6] = system: EGFR tyrosine kinase phosphorylation in Cal27 cells; assay: Western blot pEGFR in Cal27 lysates; assay type: cell-based; conditions: Cal27, 30 µM, 4 h post-treatment

Compound: COc1ccc(CNC(=O)c2nc3ccccc3s2)cc1O [Compound 14, N-(3-hydroxy-4methoxybenzyl)benzo[d]thiazole-2-carboxamide]
- inhibition at 50 µM ([1]; read-out: % inhibition of HK2 enzyme activity at 50 µM): 87%
- IC50 ([1]; read-out: IC50 against HK2): 2.94 ± 0.2 µM
- CC50 [2]: > 100 µM
- Selectivity index (Cal27) ([3]; CC50/GI50, HFF1 vs Cal27): >4.6
- Selectivity index (FaDu) ([3]; CC50/GI50, HFF1 vs FaDu): >1.6
- effect on cell cycle progression [4]: G0/G1 phase arrest
- apoptosis-inducing activity [5]: late apoptotic and necrotic effects
- EGFR tyrosine kinase phosphorylation [6]: does not significantly impact
